# Laboratory results published in article PMC11339948 (Chemical Science, 2024).
# Bridge positions count the residues as written; N and C are the ends. Square brackets hold non-standard residues; d marks the D form. Ends that are not written are not given here. pGlu = O=C1CC[C@@H](C(=O)O)N1
# Target: full-length TDP1 (Homo sapiens, UniProt Q9NUW8)
# Experiment: FRET-based TDP1 enzymatic activity inhibition assay
# Format: biochemical
# full-length TDP1, sequence (Q9NUW8 whole entry): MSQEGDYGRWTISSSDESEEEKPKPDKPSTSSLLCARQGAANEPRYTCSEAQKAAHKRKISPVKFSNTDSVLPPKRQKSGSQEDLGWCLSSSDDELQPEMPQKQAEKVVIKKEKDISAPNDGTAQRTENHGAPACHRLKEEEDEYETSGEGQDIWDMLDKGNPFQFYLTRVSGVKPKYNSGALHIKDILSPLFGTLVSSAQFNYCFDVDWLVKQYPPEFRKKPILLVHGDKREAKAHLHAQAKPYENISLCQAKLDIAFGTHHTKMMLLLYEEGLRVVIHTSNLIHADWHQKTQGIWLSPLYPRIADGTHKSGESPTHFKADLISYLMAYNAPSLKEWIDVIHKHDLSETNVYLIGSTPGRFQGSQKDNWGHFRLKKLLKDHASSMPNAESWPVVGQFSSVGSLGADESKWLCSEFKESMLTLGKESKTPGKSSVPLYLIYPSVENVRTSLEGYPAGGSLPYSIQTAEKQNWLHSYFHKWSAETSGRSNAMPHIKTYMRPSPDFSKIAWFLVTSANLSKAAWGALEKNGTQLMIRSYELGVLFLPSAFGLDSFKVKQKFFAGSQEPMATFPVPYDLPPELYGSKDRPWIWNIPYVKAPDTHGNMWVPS
row,Substance,IC50 [nM]
1,"[pGlu]EAFCYSDRFCQNYIGSIPDCCFGRGSYSFELQPPPWECYQC (disulfide 5-21, 11-39, 22-42) [Synthetic recifin A, recifin A]",580
2,"[pGlu]EAFCYSDRFCQNYIGSIPDCCFGRGSYSFELQPPPWECYQC (disulfide 5-21, 11-39, 22-42) [Native recifin A, recifin A]",800
